What is called viability is a per cent measure of how many cells are alive, often set against a control. Read a high viability as better survival.

One data set has as its system CT26 tumor. Nature of the data set: Combined gNO and surgery, CT26 tumor recurrence. Format: in vivo, mice. The conditions noted are these: then excision. The method, then:
The following in vivo experimental procedures were carried out in accordance with the protocol approved by the Ethics Committee on the Use and Care of Animals. Institutional Animal Care and Use Committee (IACUC): IL-20-3-149.
CT26 tumor-bearing mice were treated with 20,000 ppm and 50,000 ppm gNO intra-tumorally for 5 minutes. Up to fourteen days post gNO treatment, all tumors were excised, and the recurrence rate was monitored for 89 days post-excision. Tumor recurrence was detected 17 days post treatment.

The subject of the next data set is 4T1 challenge tumor. Nature of the data set: Challenge assay in 4T1 tumor-bearing mice. The conditions noted are these: 50,000 ppm gNO intra-tumorally for 10 minutes. Format: in vivo. As to the method:
(§1) Challenge tumor inoculation: Up to 21 days after gas treatment was applied to the primary tumor, the appropriate cancer cell suspensions were prepared as described herein and inoculation of cells was repeated on the contralateral flank of the mice. Administration was performed as soon as possible following cell suspension preparation and after manual shaking prior to withdrawal of the cell suspension.
(§2) The percentage of challenge tumor take was monitored 2-3 times a week by taking a look at the inoculated site and touching this area to look for small tumors that are not yet visible. Naïve mice inoculated with tumor cells for the first time served as an internal control.
In another challenge assay, 4T1 tumor-bearing mice were treated with 50,000 ppm gNO administered intra-tumorally by a 23G hypodermic needle for 10 minutes, and the effect of a local treatment with gNO on the primary tumor as compared to nitrogen was tested, as depicted in FIG. 16A. Fourteen days post gNO treatment, mice were re-inoculated with 10×10^5 4T1 cells subcutaneously (s.c.) (challenge assay). The percentage of tumor take was monitored by caliper measurements 2-3 times a week for 10 days. Naïve mice, inoculated with 4T1 for the first time, served as the control group. […]

For another data set, the system named is LLC1 challenge tumor. Nature of the data set: Challenge assay in LLC1 tumor-bearing mice. The class given is in vivo. The conditions noted are these: 50,000 ppm NO intra-tumorally for 10 minutes; 9 days post challenge tumor inoculation. As to the method: as §1, §2
gNO local administration was tested in a Challenge assay, as depicted in FIG. 15A, in order to evaluate whether treating the primary tumor by gNO based ablation stimulates an anti-tumor immune response that results in rejection of a secondary tumor inoculation. A secondary, “challenge”, tumor cells inoculation also serves as a metastasis model.
LLC1 tumor-bearing mice were treated with 50,000 ppm NO administered intra-tumorally by a 23G hypodermic needle for 10 minutes. Up to 2 weeks post the first gas treatment all gas-treated mice were re-inoculated with 2.5×10^5 LLC1 cells suspended in 100 μL HBSS into the left flank. Naïve mice inoculated with 5×10^5 CT-26 cells served as an internal control for cells' quality.

In another data set the test system is B16.F10 cells. Nature of the data set: XTT viability of B16.F10 cells after gas exposure in chamber. Format: cell-based. The conditions noted are these: 10,000 ppm-25,000 ppm gNO for 3-15 minutes. As to the method: (§3) In vitro systems: One system involves a direct exposure of cancer cells to gNO in 96-well plate. Gaseous NO at 150 ppm-50,000 ppm was delivered at 0.3 LPM for 10 seconds—3 minutes. In another system, cancer cells were exposed to gNO in a box made of acrylic glass. Gaseous NO at 10,000-50,000 ppm was delivered at 0.9 LPM for 10 seconds—15 minutes.
(§4) The exposure of the cancer cells to gNO was done after removing the cell culture medium.
(§5) Immediately after gas exposure, cell culture medium was added, and the cells were incubated at a 37° C. and 5% CO2 incubator over-night. To test cell viability, XTT assay and Annexin V-Propidium Iodide assays were performed, according to known protocols.
B16.F10 cells were prepared in DMEM medium and suspended in 96-well plates. The plates were placed inside an approx. 2 liter exposure chamber. The plates were exposed to the gas by filling the chamber with gNO for 10 seconds, or 1, 3, 9 or 15 minutes. After exposure, the plates were placed in a 5% CO2, 37° C. incubator for an overnight incubation and the viability of the cells was tested by XTT assay.

The test system of a further data set is CT26 challenge tumor. Nature of the data set: Challenge assay in CT26 tumor-bearing mice. The class given is in vivo. The method, then: as §1, §2
In another challenge assay, the tumors of CT26 tumor-bearing mice were treated with 25,000-200,000 ppm gNO delivered into the tumors using 23G hypodermic needles, as depicted in FIG. 17A.
CT26 tumor-bearing mice treated with 25,000 ppm for 30 minutes, were re-inoculated with CT26 tumor cells 12 days after treatment (n=1) and 14 days after treatment (n=1). The percentage of visible challenge tumor take was assessed 2-3 times a week for more than 50 days.
An additional group of CT26 tumor-bearing mice were treated with 50,000 ppm for 10 minutes, and were re-inoculated with CT26 tumor cells 7 days (n=1) or 9 days (n=1) after treatment. The percentage of challenge tumor take was assessed 2-3 times a week for 12 days.
An additional group of CT26 tumor-bearing mice were treated with 200,000 ppm for 2-35 seconds, were re-inoculated with CT26 tumor cells 14 days (n=2) post treatment. The percentage of visible challenge tumor take was assessed 2-3 times a week for more than 50 days.
Naïve mice, inoculated with CT26 for the first time, served as the control group.
The effect of high-pressure gas treatment on stimulation of anti-tumor immune response was tested in a challenge assay as depicted in FIG. 37A.
Balb/c mice were inoculated subcutaneously (s.c) with the mouse colon cancer cell line, CT26. […]

For another data set, the system named is PC-3 cells. Nature of the data set: XTT viability of PC-3 cells after direct gas exposure in 96-well plate. Format: cell-based. As to the method:
as §3, §4, §5
PC-3 cells were prepared in RPMI medium and suspended in four 96-well plates. The wells were exposed to the gas by a tubing that was directed at each well for 10, 60 or 180 seconds. The diameter of the gas tubing used was about 25% of the diameter of each well. Three wells were used for each gas and exposure time. The plates were placed in a 5% CO2, 37° C. incubator for 15-18 hours and the viability of the cells was tested by XTT assay.
Background: Formazan colour is commonly taken as a measure of viable cells.

Take `[N]=O` [gNO, nitric oxide]: the tumor recurrence result in the data set on CT26 tumor (20,000 ppm gNO intra-tumorally 5 minutes, 17 days post-surgery) is “about 18%”; in the data set on CT26 tumor (50,000 ppm gNO intra-tumorally 5 minutes, 17 days post surgery) it was 0%. In addition, the “development of a secondary (challenge) 4T1 tumor” value in the data set on 4T1 challenge tumor (5 days post challenge tumor inoculation) is given as “have not developed a secondary tumor”. The “challenge tumor take compared to non-treated and nitrogen-treated mice” value in the data set with 4T1 challenge tumor (10 days post re-inoculation) is reported as “a delay in the challenge tumor take was achieved”. Besides, in the data set on LLC1 challenge tumor, the “development of a secondary (challenge) LLC1 tumor” value is on record as “none of the gas-treated mice developed a secondary tumor”. Also, the “viability of B16.F10 cells” value with B16.F10 cells is “less than 5%”. The “secondary CT26 tumor cell inoculation at end of follow-up” value in the data set on CT26 challenge tumor (25,000 ppm 30 minutes, 50,000 ppm 10 minutes or 200,000 ppm 2-35 seconds, naive mice 100% tumor take) was “all NO-treated mice rejected a secondary CT26 tumor cell inoculation”. The “tumor-free mice, no primary and challenge tumors” value in the data set on CT26 challenge tumor (25,000 ppm gNO, 0.25 LPM, two 15-minute cycles, outlet pressure 3.5-5.17 bars) is recorded as 50%. Besides, in the data set with CT26 challenge tumor (25,000 ppm gNO, 0.25 LPM, two 15-minute cycles, outlet pressure 3.5-5.17 bars, re-inoculated days 12-14), the “development of a secondary (challenge) CT26 tumor” value was “have not developed a secondary tumor”. In the data set on PC-3 cells (4,000 ppm and 10,000 ppm gNO for 180 seconds), the “viability of PC-3 cells” value is given as 43-48%. Besides, the viability at 4000 ppm lay in the range of 44 to 55% with PC-3 cells (Homo sapiens, PC-3, 1 min, 4,000 ppm, 10,000 ppm and 50,000 ppm gNO for 1 minute); 56 to 72% in the data set on PC-3 cells (Homo sapiens, PC-3, 4,000 ppm, 10,000 ppm and 50,000 ppm gNO for 10 seconds). In addition, the viability at 50000 ppm in the data set on PC-3 cells (Homo sapiens, PC-3, 50,000 ppm gNO for 180 seconds) is approximately 17%.

For the origin of these results see patent publication US20240238417A1, “METHODS OF PRODUCING TUMOR VACCINES AND USES THEREOF” (priority 2021, published 2024).
